Test results taken from article PMC12916490 (Molecular Psychiatry, 2025).
Read-outs that look alike come from different tables or passages of the source.

Assays:
[1] = target: h5-HT2A (Homo sapiens, UniProt P28223); experiment: biochemical; assay type: binding; set-up: expressed in transfected cells; host or cells: HEK 293 cells (membrane preparation)
[2] = target: T1, hTAAR1 (Homo sapiens, UniProt Q96RJ0); experiment: Functional activity at human TAAR1 (cAMP); assay type: cell-based; settings: for Emax: mean (95% CI), β-phenylethylamine as maximal response, read-out: hTAAR1 Activation efficacy Emax
T1 construct: expressed in transfected cells
T1 sequence (Q96RJ0 1-339): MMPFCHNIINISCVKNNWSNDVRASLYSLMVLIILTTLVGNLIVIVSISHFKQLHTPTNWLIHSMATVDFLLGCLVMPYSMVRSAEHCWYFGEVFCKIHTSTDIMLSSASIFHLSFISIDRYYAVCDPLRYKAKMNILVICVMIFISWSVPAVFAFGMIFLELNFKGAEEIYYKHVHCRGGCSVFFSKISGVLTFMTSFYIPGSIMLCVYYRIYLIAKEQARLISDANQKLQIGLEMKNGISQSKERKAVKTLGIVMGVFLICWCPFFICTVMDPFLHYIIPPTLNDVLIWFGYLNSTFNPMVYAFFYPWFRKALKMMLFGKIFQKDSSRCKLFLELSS
Procedure: Activity at the human trace amine-associated receptor 1 (hTAAR1) was determined as previously described. More information can be found in the Supplementary information.
Then, the obtained RA values were used to calculate the bias factor (β) for each pathway combination. […]
pathway 1 over pathway 2. Brown-Forsythe and Welch ANOVA analyses were applied to estimate the statistical probability that β is different from zero.
3.3 Functional activity at the human TAAR1 […]
receptor 1 (hTAAR1) were generated by transfection with Lipofectamine 2000 (Invitrogen, Zug, Switzerland). The cells were harvested and pelleted by centrifugation at 900 rpm for 3 min at room temperature. The supernatant was then removed, and the cell pellet was resuspended in fresh culture medium. The cells were plated into 96 -well plates (100 μL, containing 80,000 cells per well) and incubated […]
The culture medium was removed, and the cells were washed once with 50 μL phosphate buffered saline without Ca2+ and Mg2+. Thereafter, 90 μL of Krebs -Ringer bicarbonate buffer (Sigma- […]
to 10 μM cAMP) was included on each plate. In addition, a reference plate containing RO5256390, β-phenylethylamine, and p-tyramine was included in each experiment. Test compound solution, β-phenylethylamine (as maximal response), or basal control were added at a volume of 30 μL, and the cells […]
Afterwards, the cells were lysed with 50 μL of detection mix solution […]
under heavy shaking. Fluorescence was then measured.
3.4 Plasma and brain tissue analysis
3.4.1 Analytical standards […]
to spike blank plasma or tissue homogenate at calibration standards of 1, 2.5, 5, 10, 25, 50, 100, 250, and […]
Extraction was performed by protein precipitation with 150 µL of acetonitrile added to 50 µL plasma in a 2-mL centrifuge tube. The samples were then vortexed for 10 s and shaken for 3 min at […]

[3] = system: C57BL/6 J mice; experiment: Body temperature change in mice (dose-response sessions); assay type: in vivo, mouse; settings: pre to post 30-min session, mean ± SEM
Procedure: (§1) Behavioral studies were conducted as previously described with minor modifications. Male C57BL/6 J mice (The Jackson Laboratory #000664, 24 mice/drug) were purchased at 8 weeks old, group housed for acclimation (3–5 per cage for 1–2 weeks) under a 12:12 light:dark cycle (07:00 local time = lights on), with ad libitum access to food and water at the NIDA IRP facilities in Baltimore, MD, USA. All experiments were approved by the NIDA IRP Animal Care and Use Committee. After acclimation to the vivarium facilities, each mouse was briefly anesthetized with isoflurane and a temperature transponder (14 × 2 mm, model IPTT-300, Bio Medic Data Systems, Inc., Seaford, DE, USA) was implanted subcutaneously (s.c.) on the back, posterior to the shoulder blades. After the implant, mice were single housed and allowed one week recovery prior to the start of experiments. […] Drugs were randomly assigned and administered s.c. as the weight of the form used at an injection volume of 0.01 mL/g body weight.
(§2) During experimental testing, mice were tested once every 1–2 weeks to avoid potential tolerance to behavioral effects of the test drugs and were tested 2–3 times in total per drug. Each test session began with a brief 5 min acclimation period to the testing arenas, followed by recording baseline body temperature using a handheld wand that was sensitive to the signals emitted from the s.c. transponder. After this, mice were injected s.c. with appropriate doses of test drug and returned to the chambers for a 30-min test session. During the dose-response sessions, locomotor activity was continuously recorded using open field chambers with photobeam arrays (Coulbourn Instruments, Holliston, MA, USA) that were modified with cylindrical inserts and custom floor panels that also allowed video recordings of each mouse to later quantify HTR activity (GoPro Hero 7 camera; 960p resolution at 120 frames per second). Videos for each mouse were analyzed post session using commercially available software used to quantify HTR as previously described.
(§3) Data analysis was performed with Prism software (version 10.1.2, GraphPad Software, Boston, MA, USA). The IC50 values from the radioligand binding assays were determined by nonlinear regression, using three independent concentration-response curves fitted to a one-site model. The Cheng-Prusoff equation was used to calculate Kᵢ values for the competing ligands. EC50 values were determined by applying nonlinear regression to concentration-response curves. Bias factors (β) were calculated based on the relative intrinsic activity approach. More detailed information can be found in the Supplementary information. Mean values for total number of HTR, change in body temperature from pre to post session (Δ°C), and total distance traveled (cm) for each drug dose were compared (p < 0.05) via Welch’s ANOVA with Dunnett’s T3 post test, comparing all doses to respective vehicle controls (0 mg/kg). Welch’s ANOVA with Dunnett’s T3 post test was also used to compare drug concentrations, but the data were compared to DOM in this case. Dose–response relationships for HTR and locomotor activities were plotted using bell-shaped curve fits, while temperature change data were plotted using four-parameter non-linear regression curve fits. The ascending phase of the HTR curve for each drug was used to determine ED50 potency values from four parameter non-linear regression fits. For combined DOM and DOAM administration, the plasma, brain tissue, and brain dialysate drug concentrations were compared using paired t-tests (p < 0.05). Ratios were compared using Holm-Sidak’s post hoc test following a repeated-measures one-way ANOVA (F (1.709, 6.835) = 70.80; p < 0.0001).
(§4) Locomotor activity and body temperature were also assessed to monitor other pharmacological effects of the drugs that may impact the HTR. […]

[4] = system: C57BL/6 J mice; experiment: Locomotor activity in mice (dose-response sessions); assay type: in vivo, mouse; settings: 30-min session, mean ± SEM
Procedure: as §1, §2, §3, §4

Sequence of h5-HT2A (P28223 whole entry, looked up): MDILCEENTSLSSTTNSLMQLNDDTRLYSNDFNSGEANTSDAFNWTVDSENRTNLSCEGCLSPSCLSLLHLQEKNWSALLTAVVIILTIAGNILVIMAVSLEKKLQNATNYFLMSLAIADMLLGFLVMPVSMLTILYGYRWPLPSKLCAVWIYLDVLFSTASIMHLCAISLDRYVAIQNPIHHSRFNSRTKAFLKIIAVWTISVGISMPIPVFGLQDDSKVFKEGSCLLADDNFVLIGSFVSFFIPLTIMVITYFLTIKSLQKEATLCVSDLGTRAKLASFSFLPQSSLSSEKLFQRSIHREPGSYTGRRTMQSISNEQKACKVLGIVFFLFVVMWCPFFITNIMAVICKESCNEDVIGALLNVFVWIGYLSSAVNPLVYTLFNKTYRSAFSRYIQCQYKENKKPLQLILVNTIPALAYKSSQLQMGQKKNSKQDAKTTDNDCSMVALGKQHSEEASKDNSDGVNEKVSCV

| SMILES | Ki [1] [nM] | EC50 [2] [nM] | Emax [2] [%] | ΔTemperature ([3]; 0.03 mg/kg s.c.) [°C] | ΔTemperature ([3]; 0.1 mg/kg s.c.) [°C] | ΔTemperature ([3]; 0.3 mg/kg s.c.) [°C] | ΔTemperature ([3]; 1 mg/kg s.c.) [°C] | ΔTemperature ([3]; 3 mg/kg s.c.) [°C] | ΔTemperature ([3]; 10 mg/kg s.c.) [°C] | ΔTemperature ([3]; 30 mg/kg s.c.) [°C] | Locomotor activity (distance traveled) ([4]; 0.03 mg/kg s.c.) | Locomotor activity (distance traveled) ([4]; 0.1 mg/kg s.c.) | Locomotor activity (distance traveled) ([4]; 0.3 mg/kg s.c.) | Locomotor activity (distance traveled) ([4]; 1 mg/kg s.c.) | Locomotor activity (distance traveled) ([4]; 3 mg/kg s.c.) | Locomotor activity (distance traveled) ([4]; 10 mg/kg s.c.) | Locomotor activity (distance traveled) ([4]; 30 mg/kg s.c.) | Selectivity (binding ratios) 5-HT2A/5-HT1A ([1]; ratio of Ki values) | Selectivity (binding ratios) 5-HT2A/5-HT2B ([1]; ratio of Ki values) | Selectivity (binding ratios) 5-HT2A/5-HT2C ([1]; ratio of Ki values) | further results |
| --- | --- | --- | --- | --- | --- | --- | --- | --- | --- | --- | --- | --- | --- | --- | --- | --- | --- | --- | --- | --- | --- |
| CCc1cc(OC)c(CC(C)N)cc1OC (centres unmarked) [DOET, 4-ethyl-2,5-dimethoxyamphetamine] | 12 |  |  |  |  |  |  |  |  |  |  |  |  |  |  |  |  |  |  |  |  |
| CCCCc1cc(OC)c(CC(C)N)cc1OC (centres unmarked) [DOBU, 4-butyl-2,5-dimethoxyamphetamine] | 5.4 | 10400 | 98 | -0.1 ± 0.1 | -0.1 ± 0.2 | 0.1 ± 0.1 | -0.4 ± 0.1 | -0.3 ± 0.2 | -1.7 ± 0.6 | -5.5 ± 0.4 | 2,386 ± 181 cm | 2,342 ± 184 cm | 2,535 ± 61 cm | 3,030 ± 217 cm | 3,348 ± 297 cm | 1,167 ± 195 cm | 793 ± 154 cm | 2506 | 30 | 11 |  |
| CCCc1cc(OC)c(CC(C)N)cc1OC.Cl (centres unmarked) [DOPR, 4-propyl-2,5-dimethoxyamphetamine hydrochloride] | 11 | 10100 | 95 | 0.1 ± 0.1 | 0.1 ± 0.2 | 0.0 ± 0.2 | -0.1 ± 0.1 | -3.0 ± 0.6 | -4.9 ± 0.5 |  | 2,493 ± 199 cm | 2,791 ± 131 cm | 3,680 ± 100 cm | 3,500 ± 278 cm | 1,648 ± 262 cm | 665 ± 82 cm |  |  |  |  | ΔTemperature ([3]; 0.01 mg/kg s.c.): 0.3 ± 0.2 °C; Locomotor activity (distance traveled) ([4]; 0.01 mg/kg s.c.): 2,728 ± 251 cm; Selectivity (binding ratios) 5-HT2A/5-HT1A [1]: 359; Selectivity (binding ratios) 5-HT2A/5-HT2B [1]: 11; Selectivity (binding ratios) 5-HT2A/5-HT2C [1]: 4 |
| COc1ccc(OC)c(CC(C)N)c1.Cl (centres unmarked) [2,5-DMA, 2,5-Dimethoxyamphetamine hydrochloride] |  | > 30000 |  | 0.4 ± 0.1 | 0.3 ± 0.1 | 0.5 ± 0.1 | 0.2 ± 0.1 | 0.2 ± 0.2 | -0.9 ± 0.2 | -4.0 ± 0.5 | 2,854 ± 266 cm | 2,763 ± 284 cm | 2,584 ± 157 cm | 2,630 ± 184 cm | 2,780 ± 415 cm | 1,801 ± 171 cm | 1,169 ± 214 cm |  |  |  |  |
| COc1cc(CC(C)N)c(OC)cc1C (centres unmarked) [DOM, 4-methyl-2,5-dimethoxyamphetamine] | 66 | > 30000 |  | -0.1 ± 0.1 | 0.0 ± 0.1 | -0.1 ± 0.1 | 0.1 ± 0.1 | -0.2 ± 0.1 | -2.2 ± 0.8 | -6.5 ± 0.2 | 2,696 ± 154 cm | 2,522 ± 203 cm | 3,051 ± 367 cm | 4,272 ± 215 cm | 3,556 ± 278 cm | 2,186 ± 443 cm | 606 ± 47 cm |  |  |  |  |
| CCCCCc1cc(OC)c(CC(C)N)cc1OC (centres unmarked) [DOAM, 4-amyl-2,5-dimethoxyamphetamine] | 3.5 | 21800 | 86 | 0.0 ± 0.1 | 0.0 ± 0.1 | -0.3 ± 0.2 | -0.1 ± 0.2 | -0.2 ± 0.1 | -0.2 ± 0.2 | -3.9 ± 0.4 | 2,867 ± 167 cm | 2,677 ± 103 cm | 2,307 ± 244 cm | 2,421 ± 129 cm | 2,884 ± 249 cm | 3,433 ± 325 cm | 1,724 ± 138 cm | 2407 | 28 | 21 |  |
